Test results: patent US8759520B2, “Compounds for treating cancer” (Boehringer Ingelheim International GmbH, priority 2008, dated 2014)

biological target: Bcl-2 (Homo sapiens, UniProt P10415); test: Homogeneous HTS assay for inhibitors of the Bcl-2 : Bak (72-87) BH3 domain interaction, fluorescence polarisation (2D-FIDA); assay type: binding; conditions: not given
Excerpt: FIG. 1 is a schematic drawing of the Bcl-2: Bak (72-87) interaction assay based on fluorescence polarisation.
The homogeneous HTS assay for inhibitors of the Bcl-2 is shown schematically in FIG. 1. BH3 domain interaction is based on fluorescence polarisation. The inherent rotational diffusion of the Bak BH3 domain derived fluorescent labelled peptide decreases upon binding to Bc1-2. This shift in rotational diffusion is quantitated using the two-dimensional fluorescence intensity distribution analysis (2D-FIDA; Kask et al. 2000, Biophys. J. 78: 1703-1713).
Two different BH3 domain derived peptide ligands were synthesised and subsequently fluorescently labelled: • a 16mer peptide covering amino acids 72-87 of the Bak protein; this peptide had been used by Wang and co-workers and Holinger and coworkers in their Bcl-2 protein binding studies; Wang and co-workers reported an equilibrium binding constant KD of ˜0.2 μM to Bcl-2 protein; • peptide sequence: GQVGRQLAIIGDDINR—N (Wang et al. 2002, Proc. Natl. Acad. Sci. U.S.A. 97: 7124-7129; Holinger et al. 1999, J. Biol. Chem. 274: 13298-13304).

Bcl-2, sequence (P10415 whole entry, species assumed, the tested form may be a part): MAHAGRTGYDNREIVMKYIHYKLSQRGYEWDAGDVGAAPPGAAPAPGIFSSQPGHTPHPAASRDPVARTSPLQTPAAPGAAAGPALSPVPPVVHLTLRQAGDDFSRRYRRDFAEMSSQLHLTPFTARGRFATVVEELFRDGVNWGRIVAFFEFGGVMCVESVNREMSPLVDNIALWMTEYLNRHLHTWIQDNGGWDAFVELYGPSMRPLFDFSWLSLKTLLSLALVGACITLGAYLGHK

**Q.** Which IC50 does the source give for `N=c1n(CCCOc2ccc(F)cc2)c2ccccc2n1Cc1ccc(Cl)nc1` [Compound 52, 1-(6-Chloro-pyridin-3-ylmethyl)-3-[3-(4-fluoro-phenoxy)-propyl]-1,3-dihydro-benzoimidazol-2-ylideneamine] here?
**A.** 11 to 100 µM

same assay, conditions: fluorescence polarisation, fluorescent labelled Bak BH3 domain derived peptide; read-out: IC50 [μM] Bcl-2

**Q.** How did the IC50 turn out when `N=c1n(CCCOc2ccc(F)cc2)c2ccccc2n1Cc1csc(Cl)n1` [Compound 34, 1-(2-Chloro-thiazol-4-ylmethyl)-3-[3-(4-fluoro-phenoxy)-propyl]-1,3-dihydro-benzoimidazol-2-ylideneamine] was run?
**A.** 11 to 100 µM

**Q.** For `N=c1n(CCCOc2ccc(F)cc2)c2ccccc2n1Cc1csc(N2CCN(Cc3ccccc3-c3ccccc3)CC2)n1` [Compound 35, 1-[2-(4-Biphenyl-2-ylmethyl-piperazin-1-yl)-thiazol-4-ylmethyl]-3-[3-(4-fluoro-phenoxy)-propyl]-1,3-dihydro-benzoimidazol-2-ylideneamine], which IC50 is on record?
**A.** < 10 µM

**Q.** `N=c1n(CCCOc2ccc(F)cc2)c2ccccc2n1Cc1csc(N2CCN(Cc3ccccc3-c3ccc(Cl)cc3)CC2)n1` [Compound 36, 1-{2-[4-(4′-Chloro-biphenyl-2-ylmethyl)-piperazin-1-yl]-thiazol-4-ylmethyl}-3-[3-(4-fluoro-phenoxy)-propyl]-1,3-dihydro-benzoimidazol-2-ylideneamine] was tested. Which IC50 did it give?
**A.** < 10 µM

**Q.** `CC1(C)CCC(c2ccc(Cl)cc2)=C(CN2CCN(c3nc(Cn4c(=N)n(CCCOc5ccc(F)cc5)c5ccccc54)cs3)CC2)C1` [Compound 37, 1-(2-{4-[2-(4-Chloro-phenyl)-5,5-dimethyl-cyclohex-1-enylmethyl]-piperazin-1-yl}-thiazol-4-ylmethyl)-3-[3-(4-fluoro-phenoxy)-propyl]-1,3-dihydro-benzoimidazol-2-ylideneamine] was tested. Which IC50 did it give?
**A.** < 10 µM

**Q.** `N=c1n(CCCOc2ccc(F)cc2)c2ccccc2n1Cc1ccccc1N1CCN(Cc2ccccc2-c2ccccc2)CC1` [Compound 38, 1-[2-(4-Biphenyl-2-ylmethyl-piperazin-1-yl)-benzyl]-3-[3-(4-fluoro-phenoxy)-propyl]-1,3-dihydro-benzoimidazol-2-ylideneamine] was tested. Which IC50 did it give?
**A.** < 10 µM

**Q.** Which IC50 does the source give for `N=c1n(CCCOc2ccc(F)cc2)c2ccccc2n1Cc1ccc(CN2CCN(Cc3ccc(Cl)cc3)CC2)cc1` [Compound 39, 1-{4-[4-(4-Chloro-benzyl)-piperazin-1-ylmethyl]-benzyl}-3-[3-(4-fluoro-phenoxy)-propyl]-1,3-dihydro-benzoimidazol-2-ylideneamine] here?
**A.** 11 to 100 µM

**Q.** `N=c1n(CCCOc2ccc(F)cc2)c2ccccc2n1Cc1ccc(CN2CCN(c3ccccc3)CC2)cc1` [Compound 40, 1-[3-(4-Fluoro-phenoxy)-propyl]-3-[4-(4-phenyl-piperazin-1-ylmethyl)-benzyl]-1,3-dihydro-benzoimidazol-2-ylideneamine] was tested. Which IC50 did it give?
**A.** 11 to 100 µM

**Q.** With `N=c1n(CCCOc2ccc(F)cc2)c2ccccc2n1Cc1ccc(CN2CCN(c3cccc(Cl)c3)CC2)cc1` [Compound 41, 1-{4-[4-(3-Chloro-phenyl)-piperazin-1-ylmethyl]-benzyl}-3-[3-(4-fluoro-phenoxy)-propyl]-1,3-dihydro-benzoimidazol-2-ylideneamine] as the molecule, how does the IC50 read?
**A.** 11 to 100 µM

**Q.** For `N=c1n(CCCOc2ccc(F)cc2)c2ccccc2n1Cc1ccc(CN2CCN(c3ccc(Cl)cc3)CC2)cc1` [Compound 42, 1-{4-[4-(4-Chloro-phenyl)-piperazin-1-ylmethyl]-benzyl}-3-[3-(4-fluoro-phenoxy)-propyl]-1,3-dihydro-benzoimidazol-2-ylideneamine], which IC50 is on record?
**A.** 11 to 100 µM

**Q.** `N=c1n(CCCOc2ccc(F)cc2)c2ccccc2n1Cc1ccc(CNCC(=O)Nc2ccccc2Cl)cc1` [Compound 43, N-(2-Chloro-phenyl)-2-(4-{3-[3-(4-fluoro-phenoxy)-propyl]-2-imino-2,3-dihydro-benzoimidazol-1-ylmethyl}-benzylamino)-acetamide] was tested. Which IC50 did it give?
**A.** 11 to 100 µM

**Q.** For `N=c1n(CCCOc2ccc(F)cc2)c2ccccc2n1Cc1ccc(CN2CCN(c3ccccc3Cl)CC2)cc1` [Compound 44, 1-{4-[4-(2-Chloro-phenyl)-piperazin-1-ylmethyl]-benzyl}-3-[3-(4-fluoro-phenoxy)-propyl]-1,3-dihydro-benzoimidazol-2-ylideneamine], which IC50 is on record?
**A.** 11 to 100 µM

**Q.** `N=c1n(CCCOc2ccc(F)cc2)c2ccccc2n1Cc1ccc(CNCC(=O)Nc2ccc(Cl)cc2)cc1` [Compound 45, N-(4-Chloro-phenyl)-2-(4-{3-[3-(4-fluoro-phenoxy)-propyl]-2-imino-2,3-dihydro-benzoimidazol-1-ylmethyl}-benzylamino)-acetamide] was tested. Which IC50 did it give?
**A.** 11 to 100 µM

**Q.** With `N=c1n(CCCOc2ccc(F)cc2)c2ccccc2n1Cc1ccc(CN2CCN(Cc3ccccc3)CC2)cc1` [Compound 46, 1-[4-(4-Benzyl-piperazin-1-ylmethyl)-benzyl]-3-[3-(4-fluoro-phenoxy)-propyl]-1,3-dihydro-benzoimidazol-2-ylideneamine] as the molecule, how does the IC50 read?
**A.** < 10 µM

**Q.** `N=c1n(CCCOc2ccc(F)cc2)c2ccccc2n1Cc1ccc(CN2CCN(Cc3cccc(Cl)c3)CC2)cc1` [Compound 47, 1-{4-[4-(3-Chloro-benzyl)-piperazin-1-ylmethyl]-benzyl}-3-[3-(4-fluoro-phenoxy)-propyl]-1,3-dihydro-benzoimidazol-2-ylideneamine] was tested. Which IC50 did it give?
**A.** < 10 µM

**Q.** With `N=c1n(CCCOc2ccc(F)cc2)c2ccccc2n1Cc1ccc(CN2CCN(Cc3ccccc3Cl)CC2)cc1` [Compound 48, 1-{4-[4-(2-Chloro-benzyl)-piperazin-1-ylmethyl]-benzyl}-3-[3-(4-fluoro-phenoxy)-propyl]-1,3-dihydro-benzoimidazol-2-ylideneamine] as the molecule, how does the IC50 read?
**A.** 11 to 100 µM

**Q.** `N=c1n(CCCOc2ccc(F)cc2)c2ccccc2n1Cc1ccc(CN2CCN(Cc3ccccc3-c3ccccc3)CC2)cc1` [Compound 49, 1-[4-(4-Biphenyl-2-ylmethyl-piperazin-1-ylmethyl)-benzyl]-3-[3-(4-fluoro-phenoxy)-propyl]-1,3-dihydro-benzoimidazol-2-ylideneamine] was tested. Which IC50 did it give?
**A.** 11 to 100 µM

**Q.** For `N=c1n(CCCOc2ccc(F)cc2)c2ccccc2n1Cc1ccc(CNCC(=O)Nc2cccc(Cl)c2)cc1` [Compound 50, N-(3-Chloro-phenyl)-2-(4-{3-[3-(4-fluoro-phenoxy)-propyl]-2-imino-2,3-dihydro-benzoimidazol-1-ylmethyl}-benzylamino)-acetamide], which IC50 is on record?
**A.** 11 to 100 µM

**Q.** With `N=c1n(CCCOc2ccc(F)cc2)c2ccccc2n1Cc1ccc(CNCC(=O)Nc2ccccc2)cc1` [Compound 51, 2-(4-{3-[3-(4-Fluoro-phenoxy)-propyl]-2-imino-2,3-dihydro-benzoimidazol-1-ylmethyl}-benzylamino)-N-phenyl-acetamide] as the molecule, how does the IC50 read?
**A.** 11 to 100 µM

**Q.** Which IC50 does the source give for `N=c1n(CCCOc2ccc(F)cc2)c2ccccc2n1Cc1ccc(N2CCN(Cc3ccccc3)CC2)nc1` [Compound 53, 1-[6-(4-Benzyl-piperazin-1-yl)-pyridin-3-ylmethyl]-3-[3-(4-fluoro-phenoxy)-propyl]-1,3-dihydro-benzoimidazol-2-ylideneamine] here?
**A.** 11 to 100 µM

**Q.** Which IC50 does the source give for `N=c1n(CCCOc2ccc(F)cc2)c2ccccc2n1Cc1ccc(N2CCN(Cc3cccc(Cl)c3)CC2)nc1` [Compound 54, 1-{6-[4-(3-Chloro-benzyl)-piperazin-1-yl]-pyridin-3-ylmethyl}-3-[3-(4-fluoro-phenoxy)-propyl]-1,3-dihydro-benzoimidazol-2-ylideneamine] here?
**A.** 11 to 100 µM

**Q.** `N=c1n(CCCOc2ccc(F)cc2)c2ccccc2n1Cc1ccc(N2CCN(Cc3ccc(Cl)cc3)CC2)nc1` [Compound 55, 1-{6-[4-(4-Chloro-benzyl)-piperazin-1-yl]-pyridin-3-ylmethyl}-3-[3-(4-fluoro-phenoxy)-propyl]-1,3-dihydro-benzoimidazol-2-ylideneamine] was tested. Which IC50 did it give?
**A.** 11 to 100 µM

**Q.** `N=c1n(CCCOc2ccc(F)cc2)c2ccccc2n1Cc1ccc(N2CCN(Cc3ccccc3-c3ccccc3)CC2)nc1` [Compound 56, 1-[6-(4-Biphenyl-2-ylmethyl-piperazin-1-yl)-pyridin-3-ylmethyl]-3-[3-(4-fluoro-phenoxy)-propyl]-1,3-dihydro-benzoimidazol-2-ylideneamine] was tested. Which IC50 did it give?
**A.** < 10 µM

**Q.** `N=c1n(CCCOc2ccc(F)cc2)c2ccccc2n1Cc1ccc(N2CCN(Cc3ccccc3Cl)CC2)nc1` [Compound 57, 1-{6-[4-(2-Chloro-benzyl)-piperazin-1-yl]-pyridin-3-ylmethyl}-3-[3-(4-fluoro-phenoxy)-propyl]-1,3-dihydro-benzoimidazol-2-ylideneamine] was tested. Which IC50 did it give?
**A.** 11 to 100 µM

**Q.** How did the IC50 turn out when `Cc1ccc2c(c1)n(Cc1ccc(Br)cc1)c(=N)n2CCCOc1ccc(F)cc1` [Compound 58, 3-(4-Bromo-benzyl)-1-[3-(4-fluoro-phenoxy)-propyl]-5-methyl-1,3-dihydro-benzoimidazol-2-ylideneamine] was run?
**A.** 11 to 100 µM

**Q.** For `N=c1n(CCCOc2ccc(F)cc2)c2ccc(F)cc2n1Cc1ccc(Br)cc1` [Compound 59, 3-(4-Bromo-benzyl)-5-fluoro-1-[3-(4-fluoro-phenoxy)-propyl]-1,3-dihydro-benzoimidazol-2-ylideneamine], which IC50 is on record?
**A.** 11 to 100 µM

**Q.** How did the IC50 turn out when `N=c1n(CCCOc2ccc(F)cc2)c2cc(C(F)(F)F)ccc2n1Cc1ccc(Br)cc1` [Compound 60, 1-(4-Bromo-benzyl)-3-[3-(4-fluoro-phenoxy)-propyl]-5-trifluoromethyl-1,3-dihydro-benzoimidazol-2-ylideneamine] was run?
**A.** 11 to 100 µM

**Q.** How did the IC50 turn out when `N=c1n(CCCOc2ccc(F)cc2)c2cc(F)ccc2n1Cc1ccc(Br)cc1` [Compound 61, 1-(4-Bromo-benzyl)-5-fluoro-3-[3-(4-fluoro-phenoxy)-propyl]-1,3-dihydro-benzoimidazol-2-ylideneamine] was run?
**A.** 11 to 100 µM
